This note sets out measurements from publication PMC7136958, “Targeting the pregnane X receptor using microbial metabolite mimicry” (EMBO Molecular Medicine, 2020).

Structures are written as SMILES. “And” between values parts separate entries of the source, which are not always exact repeats. Equal entries are not always repeated.

One data set has as its system NF-κB. Kind of data set: NF-κB nuclear translocation (immunofluorescence) in Caco-2 cells. In kind it is cell-based, human. Conditions: 25 μM, with cytokines, 2 or 12 h. As for the experimental part: HIOs and Caco‐2 were exposed to a pro‐inflammatory cytokine cocktail (10 ng/ml IFN‐γ, 10 ng/ml TNF‐α, 50 ng/ml IL‐1β) for 2–24 h in combination with DMSO or FKK5 and FKK6 compounds (10 and 25 μm). Relative mRNA levels of IL‐8 and IL‐6 were determined using quantitative real‐time PCR, with normalization to GAPDH. RNA was isolated using an RNeasy Mini Kit (Qiagen) as per the manufacturer's instructions. On column DNase (Qiagen) was used to remove any contaminating DNA. Next, cDNA was formed using iScript cDNA Synthesis Kit (Bio‐Rad) and 100 ng RNA. qRT–PCR was performed with SsoAdvanced Universal SYBR Green Kit (Bio‐Rad). The following primers were used: IL‐8 Forward: […]; IL‐8 Reverse: […]; IL‐6 Forward: […]; IL‐6 Reverse: […]; GAPDH Forward: […]; GAPDH Reverse: […]. For immunofluorescent staining of NF‐ĸB translocation to the cell nucleus, HIOs and Caco‐2 cell monolayers were fixed in 4% formaldehyde (in 1 × PBS) overnight at 4°C. The formaldehyde was removed by washing with 1 × PBS, and an antigen retrieval step was performed by incubating in 10 mM sodium citrate buffer in a vegetable steamer for 20 min. The samples were then blocked with normal donkey serum (10% in PBS with 0.3% Triton X‐100) for 1 h. […]

The test system of a further data set is IL-8 mRNA. Kind of data set: TNF-α-induced IL-8 mRNA in human colonic enteroids (Calgary Protocol). Particulars: 10 μM, pair-wise vs DMSO. The data set is classed as cell-based. As for the experimental part:
Samples were immediately processed to yield isolated colonic crypts as previously described (Fernando et al, 2017). Isolated colonic crypts were embedded in Matrigel® (Corning) and cultured in Intesticult^tm Organoid Growth Media. Human organoids were pretreated for 6 h with either FKK5, FKK6, FKK9, or vehicle (DMSO), then stimulated with human recombinant TNF‐alpha in the presence of either treatment for an additional 12 h. Organoids were washed in PBS, disrupted in Tri Reagent® (Sigma, Oakville, ON, CAN), and frozen at −80°C. After thawing, chloroform was added, samples were centrifuged for 15 min, and the resulting aqueous phase was then added to equal volumes of 70% ethanol and further processed using the RNeasy mini kit (Qiagen). cDNA was synthesized using the QuantiTect RT kit (Qiagen) according to the manufacturer's protocol. Resulting cDNA was used as a template for quantitative real‐time PCR using Perfecta SYBR Green FastMix with ROX (QuantaBio). PCR and analysis were performed using a StepOne PCR System (Applied Biosystems). Gene expression was calculated relative to β‐actin expression and expressed as fold change of control. The primers used were as follows: Human®‐Actin (NM_001101), Human CYP3A4 (NM_001202855), and Human ABCB1 (NM_000927).

The subject of data set [1] is ABCC2, UGT1A1, ABCB1, CYP3A4, GSTA1 mRNA. Kind of data set: PXR target gene mRNA in human duodenal enteroids. Conditions: for ABCB1 (MDR1) mRNA fold change, Mean / ABCC2 mRNA fold change, Mean / CYP3A4 mRNA fold change, Mean / GSTA1 mRNA fold change, Mean / UGT1A1 mRNA fold change, Mean: 10 μM, 24 h, n=3.
Method: Discarded duodenum tissue after surgery was obtained and used to isolate crypts. Embedded crypts in Matrigel formed 3D structures referred to as “enteroids”. […] DMSO was added to enteroids as a negative control. After incubation for 24 h, enteroids were collected in RNA‐free tube followed by breaking down Matrigel by pipetting vigorously (using 1 ml PBS). The enteroids were pelleted at 16,000 g for 3 min (4°C). RNA was extracted using miRNA isolation kit (Invitrogen; #AM1561) using the protocol provided by Invitrogen. […] PowerUp SYBR Green (Applied Biosystem, #A25742) was used for RT–PCR and performed 40 cycles using Quant Studio3 (Invitrogen, #A28132).
For a further data set, the target named is T1, hPXR (Homo sapiens, UniProt O75469).
T1 sequence (O75469 111-434 limits assumed): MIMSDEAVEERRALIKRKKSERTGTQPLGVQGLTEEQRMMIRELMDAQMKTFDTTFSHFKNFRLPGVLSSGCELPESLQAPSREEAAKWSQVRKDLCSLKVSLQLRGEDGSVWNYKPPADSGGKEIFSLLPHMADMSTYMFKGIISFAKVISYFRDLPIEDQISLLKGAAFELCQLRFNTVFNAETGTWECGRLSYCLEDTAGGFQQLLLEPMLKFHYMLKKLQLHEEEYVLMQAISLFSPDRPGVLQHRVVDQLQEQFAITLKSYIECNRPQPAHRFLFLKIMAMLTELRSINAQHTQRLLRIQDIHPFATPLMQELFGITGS
Nature of the data set: biochemical.

Method for hPXR: All PXR‐binding assays were performed as two independent experiments, each with a minimum of four replicates. Final IC50 was obtained by processing the data with GraphPad Prism 6 using standard curve interpolation (sigmoidal, 4PL, variable slope).

With `C#CCC(O)(c1ccncc1)c1cc2ccccc2n1S(=O)(=O)c1ccccc1` (stereo not drawn) [FKK6], the NF-κB localisation entry with NF-κB was “increased cytoplasmic”. For the same compound, the “TNF-α-induced IL-8 mRNA levels” value in the data set on IL-8 mRNA is “did not reach statistical significance”. Moreover, in data set [1], the “PXR target gene induction (in words)” value was “significantly induced”; the “ABCB1 (MDR1) mRNA fold change, Mean” value turned out to be 3.883 fold; the “ABCC2 mRNA fold change, Mean” value is 4.029 fold; the “CYP3A4 mRNA fold change, Mean” value was determined as 1.665 fold. Also, in data set [1], the “GSTA1 mRNA fold change, Mean” value worked out at 1.768 fold and the “UGT1A1 mRNA fold change, Mean” value stood at 2.472 fold. In addition, the IC50 against hPXR was 1560 nM and ~1560 nM.

Turning to `O=C(c1ccncc1)c1cc2ccccc2n1S(=O)(=O)c1ccccc1` [FKK5, (1-(phenylsulfonyl)-1H-indol-2-yl)(pyridin-4-yl)methanone], the NF-κB localisation result with NF-κB was “increased cytoplasmic”. In addition, the “TNF-α-induced IL-8 mRNA levels” value with IL-8 mRNA is “significantly lowered”. In addition, in data set [1], the “PXR target gene induction (in words)” value was “significantly induced”; the “ABCB1 (MDR1) mRNA fold change, Mean” value stood at 2.409 fold; the “ABCC2 mRNA fold change, Mean” value was found to be 4.345 fold; the “CYP3A4 mRNA fold change, Mean” value came out at 2.034 fold. Also, in data set [1], the “GSTA1 mRNA fold change, Mean” value is recorded as 4.61 fold and the “UGT1A1 mRNA fold change, Mean” value came to 1.773 fold. At hPXR, this compound came in with an IC50 of 3770 nM.

The IC50 is the concentration needed to halve the response being measured. High values mean weaker potency, low ones greater potency.
